The values below come from paper PMC4052313, “A New Lyngbyatoxin from the Hawaiian Cyanobacterium Moorea producens” (Marine Drugs, 2014).

Where two headings read alike, the source gives them in different places.

Data set [1] concerns the target T1, PKCδ-C1B peptide (Mus musculus, UniProt P28867).
T1 construct: made in house; host or cells: chemical peptide synthesis (no expression host)
In words: Competition binding assay with [3H]PDBu using synthetic PKCδ-C1B peptide. Here is the method: The binding of [^3H]PDBu to the PKCδ-C1B peptide was evaluated by the procedure of Sharkey and Blumberg with modifications as reported previously using 50 mM tris-maleate buffer (pH 7.4 at 4 °C), 13.8 nM PKCδ-C1B peptide, 20 nM [^3H]PDBu (18.7 Ci/mmol, Perkin-Elmer Life Sciences), 50 μg/mL 1,2-dioleoyl-sn-glycero-3-phospho-L-serine (Sigma, St. Louis, MO, USA), 3 mg/mL bovine γ-globulin (Sigma, St. Louis, MO, USA), and various concentrations of inhibitors. The concentration of the properly folded PKCδ-C1B peptide was estimated to be about 3 nM on the basis of Bmax values of Scatchard analyses reported previously. Binding affinity was evaluated based on the concentration required to cause 50% inhibition of the specific binding of [^3H]PDBu, the IC50, which was calculated with Microsoft Excel. The inhibition constant, Ki, was calculated by the method of Sharkey and Blumberg.

Data set [2] can be described thus: Cytotoxicity assay toward L1210 leukemia cells. The data set is classed as cell-based. The note with it: mouse. The method, then:
The cytotoxic activities of compounds 1 and 2 were tested toward L1210 mouse leukemia cells. The detailed methods were reported previously. Differences with the reported methods were (a) samples were dissolved with methanol; and (b) the methanol dissolved samples were applied onto each well and air-dried before the addition of L1210 cells.

The test system of data set [3] is shrimp Palaemon paucidens. In words: Crustacean lethality test, injection into abdominal cavity of shrimp. The data set is classed as in vivo. As to conditions: for LD100 (lethal dose 100%): injection into abdominal cavity, monitored for 4 h. The method, then:
The shrimp Palaemon paucidens (average weight, 0.5 g) was used for the crustacean lethality test. Tested samples were suspended with 1% Tween 20 (polyoxyethylene (20) sorbitan monolaurate). Two micro liter of each sample suspension was injected into the abdominal cavity of the shrimp (n = 3–5). The shrimp were monitored every 30 min for 4 h. Through the lethality tests, the lethal dose 100% values (LD100) were determined. One percent Tween 20 without sample was used as reference. LD100 was defined as weight of sample per unit weight of crustacean.

Data set [4] addresses T1, PKCδ-C1B peptide. The note with it: read-out: Ki for binding to PKCδ-C1B; cited from earlier work.
In data set [5] the test system is HeLa cells. The note with it: read-out: IC50 (cytotoxic effects); cited from earlier work.
Data set [6] concerns ACC-MESO-1 cells. The note with it: read-out: IC50 (cytotoxic effects); cited from earlier work.

T1 sequence (P28867 231-281 limits assumed): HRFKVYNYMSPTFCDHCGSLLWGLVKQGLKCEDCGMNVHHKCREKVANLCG

As to `C=C[C@@](C)(CCC=C(C)C)c1ccc2c3c(c[nH]c13)C[C@@H](CO)NC(=O)[C@@H](C(C)C)N2C` [compound 1, 12-Epi-lyngbyatoxin A], the inhibitory constant (Ki) (usually a dissociation constant, usually derived from enzyme kinetics or from competition with a known ligand) in data set [1] is 17 nM. The “Times lower binding affinity for PKC compared to lyngbyatoxin A (2)” value in data set [1] (PKCδ-C1B peptide, relative to compound 2) is recorded as “more than 100 times”. The IC50 (usually the concentration that inhibits the measured activity by half) in data set [2] was determined as 20.4 µM. Besides, the “LD100 (lethal dose 100%)” value in data set [3] stood at 7.5 mg/kg. Also, the Dose causing paralysis in data set [3] (injection, dose below the lethal dose) was 0.9 mg/kg.
Turning to `CO[C@@H](CC[C@H](C)[C@H]1O[C@@]23C[C@H](OC(=O)C[C@H]([C@@H](C)O)OC(=O)C[C@](O)(O2)[C@H](C)CC3(C)C)[C@@H]1C)c1cccc(O)c1` [DATX, debromoaplysiatoxin], the Ki in data set [4] was 0.2 nM.
Regarding `CO[C@@H](CC[C@H](C)[C@H]1O[C@@]23C[C@H](OC(=O)C[C@H]([C@@H](C)O)OC(=O)C[C@](O)(O2)[C@H](C)CC3(C)C)[C@@H]1C)c1cc(O)ccc1Br` [ATX, Aplysiatoxin], the Ki in data set [4] was 0.41 nM.
For the compound `C=C[C@@](C)(CCC=C(C)C)c1ccc2c3c(c[nH]c13)C[C@@H](CO)NC(=O)[C@H](C(C)C)N2C` [compound 2, Lyngbyatoxin A], the Ki in data set [1] came to 0.11 nM. In addition, the IC50 in data set [2] is 8.1 µM; in data set [5] it was 35 µM; in data set [6], 11 µM. The “Paralysis at dose less than the lethal amount” value in data set [3] (injection) was “Paralysis was not observed”. Moreover, the “LD100 (lethal dose 100%)” value in data set [3] is on record as 5 mg/kg.
